The structures appear in SMILES notation.

These results are taken from patent US8026219B2, “Antimicrobial linear peptides” (Universitat de Girona, priority 2006, dated 2011).

The test system of data set [1] is Pseudomonas syringae EPS94. Kind of data set: Minimum inhibitory concentration (MIC), microbial growth by optical density. The data set is classed as cell-based. The conditions noted are these: 48 h incubation at 25° C., TSB medium. The procedure:
(§1) Each experiment was performed twice.

Data set [2] has as its system Erwinia amylovora PMV6076. Described as above. The settings on record: 48 h incubation at 25° C., TSB medium. The data set is classed as cell-based. The protocol: as §1
For data set [3], the target named is T1, Proteinase K (Parengyodontium album, UniProt P06873). The settings on record: 45 minutes.
Method: (§2) The degradation is expressed as the percentage of peptide degraded after a determined time interval calculated from the decrease in the area of the peak of the native peptide by HPLC.
(§3) The stability of the peptides of the invention to degradation by proteases is determined by a peptide digestion test by Proteinase K (Sigma-Aldrich Corporation, Madrid, Spain).
(§4) A solution of 50 μg/ml of the peptide and 1 μg/ml of Proteinase K in 100 mM TRIS buffer at pH 7.6 was used, at ambient temperature.
(§5) The progress of the peptide excision was determined chromatographically at times between 5 and 45 minutes. To do this a reverse phase C18 column was used (Kromasil, 4.6×40 mm; 3.5 μm particle size), and linear gradients from 0.98:0.02 to 0:1 during 7 min performing the detection by absorbance in ultraviolet light at 220 nm.
Data set [4] deals with Xanthomonas vesicatori 2133-2. Briefly: Minimum inhibitory concentration (MIC), microbial growth by optical density. The settings on record: 48 h incubation at 25° C., TSB medium.
Method: All the bacteria were stored at a temperature of −80° C. in Luria-Bertani (LB) medium supplemented with 20% glycerine in volume/volume.
In all cases they were resuspended in sterile water to obtain a suspension adjusted to an absorbance of 0.2 to 60 nm, which approximately corresponds to 10^8 colony forming units.
To determine the minimum inhibitory concentration (MIC), the peptides were solubilized in milli-Q sterile water until a final concentration of 1000 μM and they were filtered through a 0.22 μm pore size filter.
Dilutions of the peptides of the invention were made to obtained solutions at the concentrations of 750, 500, 250, 200, 150, 125, 100, 75, 50 and 25 μM.
20 μl of each dilution were mixed with 20 μl of the suspension of the corresponding bacterial indicator, and 160 μl of the TSB (Trypticase Soy Broth) liquid medium until a total volume of 200 μl in each well of a microplate.
Two replicas were carried out for each strain, concentration and peptide under study.
The positive controls contained water instead of peptide, and the negative controls contained the peptides without the bacterial suspension.
The microbial growth was determined automatically by optical density at 600 nm using the Microbiology Analyser Bioscreen C (Labsystems)
The microplates were incubated at 25° C. for 48 hours with stirring for 20 seconds before measuring the absorbance every hour. Each experiment was performed twice.
For data set [5], the system named is erythrocytes from fresh human blood. The conditions noted are these: 5% erythrocytes, 1 h at 37° C., relative to 200 μM melittin; for % Haemolysis 50 μM: 50 μM peptide; for % Haemolysis 150 μM: 150 μM peptide; for % Haemolysis 250 μM: 250 μM peptide. In short, it runs like this: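 Washed human erythrocytes (5% v/v, TRIS pH 7.2) were incubated 1 h at 37° C with peptide at final 50, 150 and 250 μM. Released haemoglobin in the supernatant was read at 540 nm. Haemolysis % was calculated relative to buffer and 200 μM melittin as complete lysis.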

Data set [6] addresses T1, Proteinase K. Briefly: in vitro. The conditions noted are these: Proteinase K (1 μg/ml), pH 7.6.
Method: as §2, §3, §4, §5

T1 sequence (P06873 106-384): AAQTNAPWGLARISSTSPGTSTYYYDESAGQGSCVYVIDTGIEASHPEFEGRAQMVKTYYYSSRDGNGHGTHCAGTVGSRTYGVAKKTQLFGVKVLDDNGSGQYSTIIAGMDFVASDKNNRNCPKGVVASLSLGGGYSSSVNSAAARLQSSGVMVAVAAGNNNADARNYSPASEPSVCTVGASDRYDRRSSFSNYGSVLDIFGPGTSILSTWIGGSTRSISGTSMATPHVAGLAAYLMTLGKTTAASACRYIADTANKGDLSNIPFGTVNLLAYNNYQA

In the case of `CC[C@H](C)[C@H](NC(=O)[C@H](CCCCN)NC(=O)[C@H](CCCCN)NC(=O)[C@H](Cc1ccccc1)NC(=O)[C@H](CC(C)C)NC(=O)[C@H](CCCCN)NC(=O)[C@@H](N)CCCCN)C(=O)N[C@@H](CC(C)C)C(=O)N[C@@H](CCCCN)C(=O)N[C@@H](Cc1ccccc1)C(=O)N[C@@H](CC(C)C)C(N)=O` [BP076], in data set [1], the “range of concentrations including the MIC, P. syringae” value was in the range of 2.5 to 5 µM. Also, the “range of concentrations including the MIC, E. amylovora” value in data set [2] lay in the range of 2.5 to 5 µM. Also, the “stability to degradation by proteases relative to the peptide of the Comparative example” value at Proteinase K [3] is given as “two times more stable”. Besides, in data set [4], the “range of concentrations including the MIC, X. vesicatoria” value lay within 2.5 to 5 µM. Further, in data set [5], the “% Haemolysis 50 μM” value is recorded as 3%, the “% Haemolysis 150 μM” value is 34% and the “% Haemolysis 250 μM” value came to 65%. For the same compound, at Proteinase K [6], the metabolised at 0.75 h, 50 μg/ml was determined as 49%.

Consider `CC[C@H](C)[C@H](NC(=O)[C@H](CCCCN)NC(=O)[C@H](CCCCN)NC(=O)[C@H](Cc1ccccc1)NC(=O)[C@H](CC(C)C)NC(=O)[C@H](CCCCN)NC(=O)[C@H](CCCCN)NC(=O)c1ccccc1)C(=O)N[C@@H](CC(C)C)C(=O)N[C@@H](CCCCN)C(=O)N[C@@H](CCCCN)C(=O)N[C@@H](CC(C)C)C(N)=O` [BP126], for which, in data set [1], the “range of concentrations including the MIC, P. syringae” value is 2.5 to 5 µM. In data set [2], the “range of concentrations including the MIC, E. amylovora” value was in the range of 5 to 7.5 µM. Moreover, the “stability to degradation by proteases relative to the peptide of the Comparative example” value at Proteinase K [3] is given as “two times more stable”. Also, the “range of concentrations including the MIC, X. vesicatoria” value in data set [4] was in the range of 2.5 to 5 µM. In data set [5], the “% Haemolysis 50 μM” value is 2%, the “% Haemolysis 150 μM” value is recorded as 14% and the “% Haemolysis 250 μM” value came to 24%. The compound also registered a metabolised at 0.75 h, 50 μg/ml at Proteinase K [6] of 53%.
